Experimental data: patent US20240124483A1, “Methods for the Treatment of Fibrotic Disease” (SHY Therapeutics, LLC, priority 2021, published 2024)
Like-named read-outs stand apart in the source and are kept apart here.

Experiments:
Smad2/3 phosphorylation = assay: Phospho-Smad2/3 Inhibition Assay in Panc-1 (western blot); type: cell-based; details: Homo sapiens; for inhibition at 10 µM: 3 hours, PANC-1 stimulated with 10 ng/ml TGF-b1 for 1 hour, read-out: % inh of Smad2/3 phosphorylation in PANC-1
Procedure: (§1) Cell lines: Human tumor-derived pancreatic cancer cell line Panc-1 and mouse muscle myoblast C2C12 were purchased from American Type Culture Collection and grown in complete DMEM-High Glucose, supplemented with penicillin (100 U/mL), streptomycin (100 μg/mL), and 10% heat-inactivated FBS at 37° C. in a humidified incubator with 5% CO2.
(§2) Method: Cells were plated at 350000 cells/well density in a 12-well plate, allowed 3 hours to adhere to the plate, then starved in the appropriate medium in the presence of 0.5% FBS overnight. The small molecules to be tested were added to the cells in the final concentration of 10 μM in the presence of 0.3% DMSO for 3 hours incubation at 37° C. For IC50 value determination, serial dilutions of compounds were added to cells under the same conditions. Next, Panc-1 cells were stimulated with 10 ng/ml TGF-b1 for 1 hour, and C2C12 cells were stimulated with 10 ng/ml TGF-b1 for 20 minutes (recombinant human TGF-b1, R&D Systems). After stimulation cells were lysed with lysis buffer containing 1% Triton X-100, EDTA, and Halt™ Protease & Phosphatase Inhibitor Cocktail (Thermo Scientific). Protein concentration was assessed by BCA protein assay (Thermo Scientific). Phosphorylation level of Smad2/Smad3 was determined by western blot.
(§3) Western blot protocol: Equal amounts of protein (15-50 μg) were separated by SDS-PAGE and transferred to nitrocellulose membranes (Invitrogen by Thermo Fisher Scientific). The membrane was stained with Ponceau S Stain (Boston BioProducts) to verify uniform protein loading. Membranes were blocked with 10% milk and phosphorylation levels of Smad2/Smad3 were assessed by incubating overnight at 4° C. with the following antibodies: Phospho-Smad2 (Ser465/467) and Phosph-Smad3 (Ser423/425), both from Cell Signaling Technology. Then the membranes were incubated with HRP-conjugated secondary antibody (Jackson Immunoresearch, West Grove, PA). Bands were incubated in Amersham ECL Prime Western Blotting Detection Reagent (GE Healthcare) and visualized using the ChemiDoc MP imaging system (Bio-Rad).

JNK = JNK Activation Assay in Panc-1 (western blot); type: cell-based, Human; set-up: key: Y = yes; N = No; details: at 10 μM
Procedure: as §1
as §2, with “JNK” for “Smad2/Smad3”
as §3, with “Smad2, Smad3, INK and p38” for “Smad2/Smad3”, “antibody: Phospho-SAPK/JNK (Thr183/Tyr185),” for “antibodies: Phospho-Smad2 (Ser465/467) and Phosph-Smad3 (Ser423/425), both”

MiaPaca2 = MiaPaca2 proliferation; type: cell-based; details: Homo sapiens, MIA PaCa-2; for inhibition at 10 µM: read-out: % inh of proliferation in MiaPaca2
KRas wild type = KRas wild type (Homo sapiens (Human), UniProt P01116); assay: Ras GTP Binding Domain Inhibition Assay, KRas wild type
KRas wild type, sequence (P01116 other isoform, or with tags, fused parts or gaps): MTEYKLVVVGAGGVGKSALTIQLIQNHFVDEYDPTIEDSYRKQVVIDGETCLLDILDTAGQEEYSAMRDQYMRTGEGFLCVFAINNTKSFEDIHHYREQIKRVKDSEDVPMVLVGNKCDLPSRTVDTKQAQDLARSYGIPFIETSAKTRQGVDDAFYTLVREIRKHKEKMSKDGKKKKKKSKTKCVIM
Procedure: (§4) A Ras Superfamily Activity Assay (as disclosed in International Application No. PCT/US2018/038613, filed Jun. 20, 2018, which is incorporated by reference in its entirety) was used as a specific assay to evaluate compounds against the following for the following Ras Superfamily proteins: KRas wild type, KRas Q61H mutant, KRas G12C mutant, KRas G12D mutant, Rac-1, and Rho-A.
(§5) Buffer-I: • 25 mM Tris-HCl, pH 7.4 • 27 mM KCl • 137 mM NaCl • 1 mM MgCl2 • 1 mM DTT
(§6) Buffer-II: • 50 mM Tris-HCl, pH 7.0 • 1 mM MgCl2 • 1 mM DTT
(§7) The small GTPases proteins: KRas wild type. KRas Q61H mutant, KRas G12C mutant, KRas G12D mutants, Rac-1, and Rho-A were expressed as His-tagged proteins. In addition, the Guanosine nucleotide Exchange Factor (GEF) Sos protein (residues 556-1049) was expressed as a His-tagged protein. In cells, the guanine nucleotide exchange factor Sos protein promotes activation of Ras proteins by stimulating an exchange of GDP for GTP. The inclusion of Sos to the Ras GTP binding domain inhibition assay may be considered as an alternative representation of physiological cellular conditions for evaluating the inhibitory activity of some of the tested small molecules.
(§8) For the assay, all purified small GTPases proteins were diluted in Buffer-I or Buffer-II to a final concentration of 10-30 μg/mL. 200 μL of each diluted protein was added to a nickel-coated 96-well plate and incubated overnight at 4° C. Then the protein solution was discarded and 200 μL of Buffer-I or Buffer-II was added to each well in the presence of 1% DMSO. Compounds to be tested were added to the protein-coated wells at final concentration of 20 μM, and incubated for 3 hours at room temperature with and without 10-30 μg/mL of Sos added to the final hour of the incubation. When performing IC50 measurements a serial dilution of all tested concentrations was added. Then Cy3-GTP or Cy5-GTP was added to each well to a final concentration of 100 nM. The labeled GTP was incubated for 45 minutes at room temperature. Following GTP incubation, wells were washed 3× in Buffer-I or Buffer-II and 200 μL of Buffer-I or Buffer-II was added to each well. Following washes, the amount of bound labeled-GTP was measured using a SpectraMax M3 (Molecular Devices).

Rac-1 = Rac-1 (Homo sapiens (Human), UniProt P63000); assay: Ras GTP Binding Domain Inhibition Assay, Rac-1
Procedure: as §4, §5, §6, §7, §8

[1] = + SOS, read-out: KRas wild type + SOS: % inh.
[2] = without SOS, read-out: KRas wild type: % inh.
[3] = without SOS, read-out: Rac-1: % inh.
[4] = + SOS, read-out: Rac-1 + SOS: % inh.

| Structure (SMILES) | IC50 (MiaPaca2) [µM] | inhibition at 20 µM (KRas wild type; [1]) [%] | inhibition at 20 µM (KRas wild type; [2]) [%] | inhibition at 20 µM (Rac-1; [3]) [%] | inhibition at 10 µM (Smad2/3 phosphorylation) [%] | Activation of JNK in PANC-1 (JNK) | inhibition at 10 µM (MiaPaca2) [%] | IC50 (Smad2/3 phosphorylation; PANC-1, TGF-b1 stimulated) [µM] | inhibition at 20 µM (Rac-1; [4]) [%] |
| --- | --- | --- | --- | --- | --- | --- | --- | --- | --- |
| COCCO[C@H]1CC[C@@H](Nc2nc(-c3nccn3C)nc3sc(-c4ccn(C(C)C)n4)c(C)c23)C1 (racemic) [Compound 20, rac-6-(1-Isopropyl-1H-pyrazol-3-yl)-N-((1R,3S)-3-(2-methoxyethoxy)cyclopentyl)-5-methyl-2-(1-methyl-1H-imidazol-2-yl)thieno[2,3-d]pyrimidin-4-amine] | 1 to 4.99 | 76 to 100 | 76 to 100 | 46 to 75 | 1 to 25 | Y | 76 to 100 |  |  |
| Cc1c(-c2ccn(C(C)C)n2)sc2nc(-c3nccn3C)nc(NCC3CN(C)CCO3)c12 (racemic) [Compound 25, rac-6-(1-Isopropyl-1H-pyrazol-3-yl)-5-methyl-2-(1-methyl-1H-imidazol-2-yl)-N-((4-methylmorpholin-2-yl)methyl)thieno[2,3-d]pyrimidin-4-amine] | 5 to 10 | 76 to 100 | 76 to 100 | 76 to 100 | 0 | Y | 46 to 75 |  |  |
| Cc1c(-c2ccn(C(C)C)n2)sc2nc(-c3nccn3C)nc(NCC3CCCO3)c12 (racemic) [Compound 26, rac-6-(1-Isopropyl-1H-pyrazol-3-yl)-5-methyl-2-(1-methyl-1H-imidazol-2-yl)-N-((tetrahydrofuran-2-yl)methyl)thieno[2,3-d]pyrimidin-4-amine] | > 10 | 76 to 100 | 76 to 100 | 46 to 75 | 0 | Y | 46 to 75 |  |  |
| COCCNc1nc(-c2nccn2C)nc2sc(-c3cccc(OC)c3Cl)c(-c3ccccc3)c12 [Compound 9, 6-(2-Chloro-3-methoxyphenyl)-N-(2-methoxyethyl)-2-(1-methyl-1H-imidazol-2-yl)-5-phenylthieno[2,3-d]pyrimidin-4-amine] |  | 76 to 100 | 46 to 75 | 46 to 75 | 76 to 100 | Y |  | 1 to 4.99 | 46 to 75 |

Now from value to molecule, other results behind:

| IC50 (MiaPaca2) [µM] | inhibition at 20 µM (KRas wild type; [1]) [%] | inhibition at 20 µM (KRas wild type; [2]) [%] | inhibition at 20 µM (Rac-1; [3]) [%] | Structure (SMILES) | inhibition at 10 µM (Smad2/3 phosphorylation) [%] | Activation of JNK in PANC-1 (JNK) | inhibition at 10 µM (MiaPaca2) [%] | IC50 (Smad2/3 phosphorylation; PANC-1, TGF-b1 stimulated) [µM] | inhibition at 20 µM (Rac-1; [4]) [%] |
| --- | --- | --- | --- | --- | --- | --- | --- | --- | --- |
| 5 to 10 | 76 to 100 | 0 | 46 to 75 | COC1CCCN(c2nc(-c3nccn3C)nc3sc(-c4ccn(C(C)C)n4)c(C)c23)C1 (racemic) [Compound 14, rac-6-(1-Isopropyl-1H-pyrazol-3-yl)-4-(3-methoxypiperidin-1-yl)-5-methyl-2-(1-methyl-1H-imidazol-2-yl)thieno[2,3-d]pyrimidine] | 46 to 75 | Y | 76 to 100 |  |  |
| 5 to 10 | 76 to 100 | 76 to 100 | 76 to 100 | COCC1CN(c2nc(-c3nccn3C)nc3sc(-c4ccn(C(C)C)n4)c(C)c23)CCO1 (racemic) [Compound 15, 4-(6-(1-Isopropyl-1H-pyrazol-3-yl)-5-methyl-2-(1-methyl-1H-imidazol-2-yl)thieno[2,3-d]pyrimidin-4-yl)-2-(methoxymethyl)morpholine] | 26 to 45 | Y | 46 to 75 |  |  |
| 5 to 10 | 76 to 100 | 26 to 45 | 76 to 100 | Cc1c(-c2ccn(C(C)C)n2)sc2nc(-c3nccn3C)nc(NCC3COCCN3C)c12 (racemic) [Compound 24, rac-6-(1-Isopropyl-1H-pyrazol-3-yl)-5-methyl-2-(1-methyl-1H-imidazol-2-yl)-N-((4-methylmorpholin-3-yl)methyl)thieno[2,3-d]pyrimidin-4-amine] | 0 | Y | 76 to 100 |  |  |
| 5 to 10 | 76 to 100 | 76 to 100 | 1 to 25 | COCC1(OC)CCN(c2nc(-c3nccn3C)nc3sc(-c4ccn(C(C)C)n4)c(C)c23)C1 (racemic) [Compound 27, rac-6-(1-Isopropyl-1H-pyrazol-3-yl)-4-(3-methoxy-3-(methoxymethyl)pyrrolidin-1-yl)-5-methyl-2-(1-methyl-1H-imidazol-2-yl)thieno[2,3-d]pyrimidine] | 0 | Y | 76 to 100 |  |  |
|  | 76 to 100 | 76 to 100 | 76 to 100 | COCCn1ccnc1-c1nc(N[C@H]2C[C@@H](OC)C2)c2c(-c3ccccc3)c(-c3ccn(C)n3)sc2n1 [Compound 13, N-((1s,3s)-3-methoxycyclobutyl)-2-(1-(2-methoxyethyl)-1H-imidazol-2-yl)-6-(1-methyl-1H-pyrazol-3-yl)-5-phenylthieno[2,3-d]pyrimidin-4-amine] | 46 to 75 | Y |  |  | 76 to 100 |
